Data as given in patent publication US11180504B2 (ORCHID PHARMA LTD., priority 2016, dated 2021).
Values after ≈ are worked out from the molar mass of the structure shown. Where two headings read alike, the source gives them in different places.

What was measured:
[1] = tested on: carbapenemase producing K. pneumoniae; assay: MIC by broth micro-dilution (CLSI), carbapenemase producing K. pneumoniae; type: cell-based, Klebsiella pneumoniae; details: Klebsiella pneumoniae, ATCCBAA1705, KPC-2 K. pneumoniae ATCC BAA-1705; read-out: MIC
[2] = tested on: carbapenem sensitive Pseudomonas aeruginosa; assay: MIC by broth micro-dilution (CLSI), carbapenem sensitive P. aeruginosa; type: cell-based
[3] = tested on: methicillin-sensitive Staphylococcus aureus; assay: MIC by broth micro-dilution (CLSI), methicillin-sensitive S. aureus; type: cell-based; details: Staphylococcus aureus, ATCC 29213 / MSSA, MSSA S. aureus ATCC29213; read-out: MIC
[4] = tested on: carbapenem sensitive Escherichia coli; assay: MIC by broth micro-dilution (CLSI), carbapenem sensitive E. coli; type: cell-based; details: Escherichia coli, ATCC25922, ESBL −ve E. coli ATCC25922; read-out: MIC
[5] = Pseudomonas aeruginosa, ATCC27853, Meropenem susceptible P. aeruginosa ATCC27853, read-out: MIC

Work on `C[C@@H](NC(=O)Cn1cnnn1)[C@H]1C(=O)N2C(C(=O)O)=C(S[C@@H]3CN[C@H](C(=O)N4CCC5(CCNC5)C4)C3)[C@H](C)[C@H]12` (single isomer, unassigned) [Example 488] yielded an MIC [1] of 1 µg/mL (≈ 1.74 µM), an MIC ([2]; Meropenem susceptible P. aeruginosa ATCC27853) of 2 µg/mL (≈ 3.49 µM) and an MIC [3] of 4 µg/mL (≈ 6.97 µM). For the same compound, the MIC [4] was 0.25 µg/mL (≈ 0.436 µM).

`C[C@@H](NC(=O)Cn1cnnn1)[C@H]1C(=O)N2C(C(=O)O)=C(S[C@@H]3CN[C@H](CC(=O)N4CCC(N)C4)C3)[C@H](C)[C@H]12` (stereo in doubt) [Example 536, (4R,5S,6R)-6-((R)-1-(2-(1H-tetrazol-1-yl)acetamido)-ethyl)-3-((3S,5R)-5-(2-((R)-3-aminopyrrolidin-1-yl)-2-oxoethyl)pyrrolidin-3-ylthio)-4-methyl-7-oxo-1-azabicyclo[3.2.0]hept-2-ene-2-carboxylic acid] gave an MIC [1] of 2 µg/mL (≈ 3.65 µM), an MIC [2, 5] of 4 µg/mL (≈ 7.3 µM) and an MIC [3] of 2 µg/mL (≈ 3.65 µM). For the same compound, the MIC [4] was 0.25 µg/mL (≈ 0.457 µM).

Work on `C[C@@H](NC(=O)[C@H]1CNCCN1)[C@H]1C(=O)N2C(C(=O)O)=C(S[C@@H]3CN[C@H](C(=O)N(C)C)C3)[C@H](C)[C@H]12` [Example 285] yielded an MIC [1] of 8 µg/mL (≈ 16.2 µM), an MIC [2, 5] of 128 µg/mL (≈ 259 µM) and an MIC [3] of 64 µg/mL (≈ 129 µM). The MIC [4] was 4 µg/mL (≈ 8.09 µM).

`C[C@@H](NC(=O)Cn1cnnn1)[C@H]1C(=O)N2C(C(=O)O)=C(S[C@@H]3CN[C@H](C(=O)N4CC5CCN(CCN)C5C4)C3)[C@H](C)[C@H]12` (single isomer, unassigned) [Example 578] showed an MIC [1] of 1 µg/mL (≈ 1.66 µM), an MIC [2, 5] of 4 µg/mL (≈ 6.64 µM) and an MIC [3] of 2 µg/mL (≈ 3.32 µM). The MIC [4] was 0.25 µg/mL (≈ 0.415 µM).

`C[C@@H](NC(=O)Cn1cnnn1)[C@H]1C(=O)N2C(C(=O)O)=C(S[C@@H]3CN[C@H](C(=O)N4CCN([C@H]5CCNC5)CC4)C3)[C@H](C)[C@H]12` [Example 406, (4R,5S,6R)-6-((R)-1-(2-(1H-tetrazol-1-yl)acetamido)ethyl)-4-methyl-7-oxo-3-((3S,5S)-5-(4-((S)-pyrrolidin-3-yl]piperazine-1-carbonyl]pyrrolidin-3-ylthio)-1-azabicyclo[3.2.0]hept-2-ene-2-carboxylic acid] was tested, and the MIC [1] was 2 µg/mL (≈ 3.32 µM), the MIC [2, 5] was 16 µg/mL (≈ 26.5 µM) and the MIC [3] was 4 µg/mL (≈ 6.64 µM). The MIC [4] was 0.25 µg/mL (≈ 0.415 µM).

For `C[C@@H](NC(=O)[C@@H]1CS(=O)(=O)CN1)[C@H]1C(=O)N2C(C(=O)O)=C(S[C@@H]3CN[C@H](C(=O)N4CC[C@@H](N)C4)C3)[C@H](C)[C@H]12` [Example 280], the MIC [1] was 8 µg/mL (≈ 14 µM), the MIC [2, 5] was 16 µg/mL (≈ 28 µM) and the MIC [3] was 64 µg/mL (≈ 112 µM). For the same compound, the MIC [4] was 8 µg/mL (≈ 14 µM).

`C[C@@H](NC(=O)Cn1nc(C(F)(F)F)nc1N)[C@H]1C(=O)N2C(C(=O)O)=C(S[C@@H]3CN[C@H](C(=O)N(C)C)C3)[C@H](C)[C@H]12` [Example 320, (4R,5S,6R)-6-((R) - 1-(2-(5-amino-3-(trifluoromethyl) - 1H-1,2,4-triazol-1-yl)acetamido)ethyl)-3-((3S,5S)-5-(dimethylcarbamoyl)pyrrolidin-3-ylthio)-4-methyl-7-oxo-1-azabiayclo[3.2.0]hept-2-ene-2-carboxylic acid] gave an MIC [1] of 4 µg/mL (≈ 6.96 µM), an MIC [2, 5] of 128 µg/mL (≈ 223 µM) and an MIC [3] of 2 µg/mL (≈ 3.48 µM). It also gave an MIC [4] of 1 µg/mL (≈ 1.74 µM).

Compound `CNCC(=O)N[C@H](C)[C@H]1C(=O)N2C(C(=O)O)=C(S[C@@H]3CN[C@H](CNS(=O)(=O)N4CC[C@H](N)C4)C3)[C@H](C)[C@H]12` [Example 253] has an MIC [1] of 16 µg/mL (≈ 28.6 µM), an MIC [2, 5] of 16 µg/mL (≈ 28.6 µM) and an MIC [3] of 32 µg/mL (≈ 57.2 µM). For the same compound, the MIC [4] was 16 µg/mL (≈ 28.6 µM).

`C[C@@H](NC(=O)Cn1cnnn1)[C@H]1C(=O)N2C(C(=O)O)=C(S[C@@H]3CN[C@H](C(=O)N4CCN(C(=O)CNC(=N)N)CC4)C3)[C@H](C)[C@H]12` [Example 446, (4R,5S,6R)-6-((R)-1-(2-(1H-tetrazol-1-yl)acetamido)ethyl)-3-((3S,5S)-5-(4-(2-guanidinoacetyl)piperazine-1-carbonyl)pyrrolidin-3-ylthio)-4-methyl-7-oxo-1-azabicyclo[3.2.0]hept-2-ene-2-carboxylic acid] gave an MIC [1] of 1 µg/mL (≈ 1.58 µM), an MIC [2, 5] of 4 µg/mL (≈ 6.32 µM) and an MIC [3] of 2 µg/mL (≈ 3.16 µM). The MIC [4] was 0.25 µg/mL (≈ 0.395 µM).
